From article PMC7281403, “Regulation of Tumor Immunity by Lysophosphatidic Acid” (Cancers, 2020)
Like-named read-outs stand apart in the source and are kept apart here. Blank lines part the entries; values can stand above or below the compound they belong to.

What was measured:
ATX [1] = test system: ATX; parameters: method as in PMID 34788605; settings: TILs from melanoma patients and peripheral CD8+ T cells; cited from earlier work
CD8+ T cells = test system: CD8+ T cells; parameters: method as in PMID 31231367; settings: cited from earlier work
ATX [2] = molecular target: ATX (Homo sapiens, UniProt Q13822); experiment: ATX activity, fluorescent FS-3 substrate assay; type: biochemical; settings: IC50 ± SD
LPAR5 [3] = molecular target: T1, LPAR5 (Homo sapiens, UniProt Q9H1C0); experiment: β-arrestin recruitment in LPAR5 expressing CHO-K1 cells; type: cell-based; parameters: expressed in transfected cells; settings: LPA-induced β-arrestin recruitment, IC50 ± SD, NE = No effect, listed as TC-LPA5-4
T1 sequence (Q9H1C0 whole entry, species assumed): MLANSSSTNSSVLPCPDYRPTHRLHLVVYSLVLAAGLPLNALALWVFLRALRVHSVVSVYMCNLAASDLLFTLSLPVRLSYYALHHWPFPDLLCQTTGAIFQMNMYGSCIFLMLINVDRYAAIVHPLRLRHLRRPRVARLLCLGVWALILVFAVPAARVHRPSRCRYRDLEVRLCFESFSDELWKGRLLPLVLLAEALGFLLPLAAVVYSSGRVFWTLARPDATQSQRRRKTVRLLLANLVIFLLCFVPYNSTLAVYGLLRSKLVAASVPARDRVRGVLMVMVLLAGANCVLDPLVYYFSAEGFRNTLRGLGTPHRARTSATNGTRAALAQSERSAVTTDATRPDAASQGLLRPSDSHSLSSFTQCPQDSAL
Text: (§1) As an example, inhibition of LPAR5 in distinct cell types, such as CD8^+ T cells could help boost its immunosurveillance activity against cancer and impede metastasis. There is currently no FDA-approved LPA receptor antagonist for cancer therapy. […] We obtained both TC-LPA5-4 and UA-02-085 and tested for LPAR5 antagonism in two independent assays: Ca^2+ mobilization and β-Arrestin recruitment. […] AGP is present in several tissues and biological fluids including tumor ascites, atherosclerotic plaques, aqueous humor of the eye, and in platelet rich plasma. Thus, alkyl-LPA might have multiple actions in the TME as well as the cancer cells. […] We included as a positive control, Amgen35, a compound originally discovered by AMGEN investigators to be a LPAR2 antagonist with an IC50 of 0.8 µM [136]. The AMGEN publication predated the discovery of the LPAR4-6. […] Amgen35 has also been reported to have off-target effects in vivo [136]. […] The other putative LPAR5 antagonist compound, AS2727638, reported by Astellas Pharma in Japan, has only been characterized at LPAR1-3 but not at the other LPAR with high homology of LPAR5 [121].

LPAR5 [4] = molecular target: T1, LPAR5; experiment: Ca2+ mobilization in LPAR5 expressing B103 cells; type: cell-based; parameters: expressed in transfected cells; host or cells: B103 cells
Text: as §1

LPAR2 [5] = molecular target: T2, LPAR2 (Homo sapiens, UniProt Q9HBW0); parameters: method as in PMID 11160288; settings: LPA 10^−9–10^−6 M, anti-LPAR2 MAb 30–300 ng/mL; cited from earlier work
T2 sequence (Q9HBW0 whole entry, species assumed): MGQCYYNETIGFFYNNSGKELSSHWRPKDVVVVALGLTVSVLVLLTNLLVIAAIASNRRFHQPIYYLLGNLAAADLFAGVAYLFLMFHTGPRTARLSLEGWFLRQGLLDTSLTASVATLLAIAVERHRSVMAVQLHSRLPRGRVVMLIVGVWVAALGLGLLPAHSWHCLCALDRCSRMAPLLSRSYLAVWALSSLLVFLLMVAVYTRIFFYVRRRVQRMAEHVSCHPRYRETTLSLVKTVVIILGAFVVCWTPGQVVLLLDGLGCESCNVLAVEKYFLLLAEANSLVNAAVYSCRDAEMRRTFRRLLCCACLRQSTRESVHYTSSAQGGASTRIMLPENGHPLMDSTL

lymphocyte = test system: lymphocyte; parameters: method as in PMID 11024010, PMID 11160288; settings: bell shape dose-response curve dropping off above 1 µM; cited from earlier work
LPAR2 [6] = molecular target: T2, LPAR2; parameters: method as in PMID 9525886; settings: Jurkat T cells, LPAR2 plus SRE-driven luciferase reporter; cited from earlier work
LPAR1 [7] = test system: LPAR1; parameters: method as in PMID 11160288; settings: cited from earlier work
Jurkat cell line = test system: Jurkat cell line; parameters: method as in PMID 7775587; settings: cotreatment with PMA compared to PMA alone; cited from earlier work
LPAR1 [8] = test system: LPAR1; parameters: method as in PMID 9525886; settings: Jurkat T cells, LPAR1 plus SRE-driven luciferase reporter; cited from earlier work
[9] = parameters: method as in PMID 15172836; settings: cited from earlier work

Compound: C[C@H](NC(=O)CCc1nc2cccnc2n1Cc1ccc(OC(F)(F)F)cc1)c1ccc(Cl)cc1 [IOA-289]
effect of conditioned media from ATX-expressing tumor cells on T cell migration in presence of ATX inhibitor (ATX [1]): failed to inhibit the migration of T cells

Compound: CCCCCCCCCCCCCCCCCCOP(O)(O)=S [OTP, octadecyl thiophosphate]
in vitro tumor cell killing function (CD8+ T cells; mouse and human CD8+ T cells): decreased in vitro tumor cell killing function
granule exocytosis (CD8+ T cells; stimulation of CD8+ T cells): impaired granule exocytosis

Compound: O=C(CCN1CCN(C(=O)OCc2cc(Cl)cc(Cl)c2)CC1)c1ccc2[nH]c(=O)oc2c1 [PF-8380]
effect of conditioned media from ATX-expressing tumor cells on T cell migration in presence of ATX inhibitor (ATX [1]): failed to inhibit the migration of T cells

IC50 (ATX [2]): 7.1 ± 0.6 µM
LPAR5 IC50 (β-arrestin) (LPAR5 [3]): inactive
LPAR5 IC50 (Ca^2+ Mobilization) (LPAR5 [4]; LPA-induced Ca2+ mobilization, LPAR5 expressing B103 cells, IC50 ± SD, NE = No effect, listed as TC-LPA5-4): inactive
Inhibition of AGP-induced Ca^2+ mobilization (LPAR5 [4]; agonist alkyl glycerophosphate (AGP), unpublished): failed to inhibit
Compound: COc1cccc(-n2nc(C(=O)O)cc2-c2ccc(C3CCCCC3)c(Cl)c2)c1 [TC-LPA-5]

Compound: lysophosphatidic acid [LPA]
transmigration of LPAR2 Jurkat transfectants (LPAR2 [5]): stimulated the transmigration
concentration of maximal efficiency in modulating lymphocyte responses (lymphocyte): 10^−10 to 10^−8 M
LPA-dependent luciferase expression (LPAR2 [6]): 20 fold over control
migratory response in LPAR1 Jurkat transfectants (LPAR1 [7]): neither LPA nor the anti-LPAR1 MAb induced a migratory response
increase in IL-2 secretion (Jurkat cell line): five-fold
LPA-dependent luciferase expression (LPAR1 [8]): 5 fold over control
critical micellar concentration ([9]; acyl group myristoyl): 1.850 mM
critical micellar concentration ([9]; acyl group oleoyl): 0.346 mM
critical micellar concentration ([9]; acyl group palmitoyl): 0.540 mM
critical micellar concentration ([9]; acyl group stearoyl): 0.082 mM
